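Assay format: 96-well plates, 48-hour exposure. The concentration for full growth arrest is given as TGI.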
Columns and labels:
Test in all cases: NCI tumour cell line growth inhibition, 48 h
[1] = tested on: NCI-H23 lung
[2] = tested on: SNB-75 CNS
[3] = tested on: MOLT-4 leukemia
[4] = tested on: SR leukemia
[5] = tested on: TK-10 renal
[6] = tested on: MDA-N
[7] = tested on: UACC-257 melanoma
[8] = tested on: U251 CNS
[9] = tested on: HL-60(TB) leukemia
[10] = tested on: MDA-MB-231 breast
[11] = tested on: A549 NSCLC
[12] = tested on: K-562 leukemia
[13] = tested on: UO-31 renal
[14] = tested on: HT29 colon
[15] = tested on: SN12C renal
[16] = tested on: A498 renal
[17] = tested on: SK-OV-3 ovarian
[18] = tested on: NCI-H226 lung
[19] = tested on: HCC-2998 colon
[20] = tested on: RPMI-8226 leukemia

In the case of OC(c1cc2ccccc2[nH]1)C1(c2cccnc2)SCCCS1 (centres undefined), the TGI [1] is reported as > 100 µM, the TGI [2] is reported as > 100 µM and the TGI [3] is reported as > 100 µM. For the same compound, the TGI [4] was > 100 µM, the TGI [5] was > 100 µM and the TGI [6] was > 100 µM. The TGI [7] was > 100 µM, the TGI [8] was > 100 µM and the TGI [9] was > 100 µM. The TGI [10] was > 100 µM, the TGI [11] was > 100 µM and the TGI [12] was > 100 µM. The TGI [13] was > 100 µM, the TGI [14] was > 100 µM and the TGI [15] was > 100 µM. For the same compound, the TGI [16] was > 100 µM, the TGI [17] was > 100 µM and the TGI [18] was > 100 µM.
In the case of CSc1cc(Br)ccc1-n1c(C(=O)c2ccccc2)c(SC)n(-c2ccccc2)c1=O, the TGI [1] is reported as > 100 µM, the TGI [2] is reported as > 100 µM and the TGI [3] is reported as > 100 µM. For the same compound, the TGI [4] was > 100 µM, the TGI [5] was > 100 µM and the TGI [6] was > 100 µM. For the same compound, the TGI [19] was > 100 µM, the TGI [7] was > 100 µM and the TGI [8] was > 100 µM. For the same compound, the TGI [10] was > 100 µM, the TGI [11] was > 100 µM and the TGI [12] was > 100 µM. The TGI [13] was > 100 µM, the TGI [14] was > 100 µM and the TGI [15] was > 100 µM. For the same compound, the TGI [17] was > 100 µM and the TGI [18] was > 100 µM.
With O=C(O)CC1NC(/C(=C/c2ccccc2O)NC(=O)c2ccccc2)OC1=O (centres undefined) the TGI [1] was > 100 µM, the TGI [2] was > 63.6 µM and the TGI [3] was > 100 µM. For the same compound, the TGI [5] was > 100 µM, the TGI [6] was > 100 µM and the TGI [19] was > 100 µM. The TGI [7] was > 100 µM, the TGI [8] was > 80.8 µM and the TGI [9] was > 100 µM. For the same compound, the TGI [10] was > 68.3 µM, the TGI [11] was > 100 µM and the TGI [12] was > 100 µM. For the same compound, the TGI [13] was > 63.6 µM, the TGI [14] was > 100 µM and the TGI [15] was > 100 µM. For the same compound, the TGI [20] was > 100 µM, the TGI [16] was > 100 µM and the TGI [17] was > 100 µM. The TGI [18] was > 79.5 µM.
C[n+]1c2ccccc2n2c3ccccc3c(NCCc3ccccn3)c(C#N)c21 was tested, and the TGI [1] was 11 µM, the TGI [2] was 5.22 µM and the TGI [3] was > 22.5 µM. The TGI [5] was 7.88 µM, the TGI [6] was 4.87 µM and the TGI [19] was 1.24 µM. The TGI [7] was 16.6 µM, the TGI [8] was 12.7 µM and the TGI [9] was 7.9 µM. The TGI [10] was 6.83 µM, the TGI [11] was 50.1 µM and the TGI [12] was > 100 µM. The TGI [13] was 6.51 µM, the TGI [14] was > 100 µM and the TGI [16] was 14 µM. For the same compound, the TGI [17] was 17.8 µM and the TGI [18] was 16.6 µM.
In the case of Cc1[nH]n(C(=N)N)c(=O)c1CCO, the TGI [1] is reported as > 100 µM, the TGI [2] is reported as > 100 µM and the TGI [4] is reported as > 100 µM. The TGI [5] was > 100 µM, the TGI [6] was > 100 µM and the TGI [19] was > 100 µM. For the same compound, the TGI [7] was > 100 µM, the TGI [8] was > 100 µM and the TGI [9] was > 100 µM. For the same compound, the TGI [10] was > 100 µM, the TGI [11] was > 100 µM and the TGI [12] was > 100 µM. For the same compound, the TGI [13] was > 100 µM, the TGI [14] was > 100 µM and the TGI [15] was > 100 µM. For the same compound, the TGI [16] was > 100 µM, the TGI [17] was > 100 µM and the TGI [18] was > 100 µM.
For O=c1cc(N2CCCC2)[nH]c(=O)n1-c1ccc(F)cc1, the TGI [1] was > 100 µM, the TGI [2] was > 100 µM and the TGI [3] was > 100 µM. For the same compound, the TGI [5] was > 100 µM, the TGI [6] was > 100 µM and the TGI [19] was > 100 µM. The TGI [7] was > 100 µM, the TGI [8] was > 100 µM and the TGI [9] was > 100 µM. For the same compound, the TGI [10] was > 100 µM, the TGI [11] was > 100 µM and the TGI [12] was > 100 µM. For the same compound, the TGI [14] was > 100 µM, the TGI [15] was > 100 µM and the TGI [20] was > 100 µM. For the same compound, the TGI [16] was > 100 µM, the TGI [17] was > 100 µM and the TGI [18] was 50.8 µM.
For C=CCc1cc(C=C(C#N)C#N)cc(OC)c1O, the TGI [1] was > 100 µM, the TGI [2] was > 100 µM and the TGI [3] was > 100 µM. The TGI [4] was > 100 µM, the TGI [5] was > 100 µM and the TGI [6] was > 100 µM. For the same compound, the TGI [7] was > 100 µM, the TGI [8] was > 100 µM and the TGI [9] was 89.1 µM. For the same compound, the TGI [10] was > 100 µM, the TGI [11] was > 100 µM and the TGI [12] was > 100 µM. The TGI [13] was > 100 µM, the TGI [14] was > 100 µM and the TGI [20] was > 100 µM. For the same compound, the TGI [16] was > 100 µM, the TGI [17] was > 100 µM and the TGI [18] was > 100 µM.
With COC(=O)C(C(=O)C(=O)Nc1ccccc1C#N)c1nc2ccc([N+](=O)[O-])cc2[nH]c1=O (centres undefined) the TGI [1] was > 100 µM, the TGI [2] was > 100 µM and the TGI [3] was > 100 µM. For the same compound, the TGI [4] was > 100 µM, the TGI [5] was > 100 µM and the TGI [6] was > 100 µM. The TGI [19] was > 100 µM, the TGI [7] was > 100 µM and the TGI [8] was > 100 µM. The TGI [10] was > 100 µM, the TGI [11] was > 100 µM and the TGI [13] was > 100 µM. For the same compound, the TGI [14] was > 100 µM, the TGI [15] was > 100 µM and the TGI [17] was > 100 µM. The TGI [18] was > 100 µM.
Nn1c(CCCCCCCCc2nnc(COc3ccccc3)n2N)nnc1COc1ccccc1 was tested, and the TGI [1] was > 100 µM, the TGI [2] was > 100 µM and the TGI [3] was > 100 µM. The TGI [5] was > 100 µM, the TGI [6] was > 100 µM and the TGI [19] was > 100 µM. The TGI [7] was > 100 µM, the TGI [8] was > 100 µM and the TGI [9] was > 100 µM. The TGI [10] was > 100 µM, the TGI [11] was > 100 µM and the TGI [12] was > 100 µM. The TGI [13] was > 100 µM, the TGI [14] was > 100 µM and the TGI [15] was > 100 µM. For the same compound, the TGI [20] was > 100 µM, the TGI [16] was > 100 µM and the TGI [17] was > 100 µM. For the same compound, the TGI [18] was > 100 µM.
Compound CC(C)(C)OC(=O)NCCC(=O)NC1(c2cc3ccccc3s2)CCCCC1 has a TGI [1] of 31.4 µM, a TGI [2] of 38.7 µM and a TGI [3] of 28.5 µM. It also gave a TGI [5] of 55.4 µM, a TGI [6] of 34.2 µM and a TGI [19] of 47.5 µM. The TGI [7] was 39 µM, the TGI [8] was 37.7 µM and the TGI [9] was 35.1 µM. It also gave a TGI [10] of 38.4 µM, a TGI [11] of 38.6 µM and a TGI [12] of 28.9 µM. It also gave a TGI [13] of 30.5 µM, a TGI [14] of 29.7 µM and a TGI [15] of 34.3 µM. The TGI [20] was 20.5 µM, the TGI [16] was 45.4 µM and the TGI [17] was 60.1 µM. It also gave a TGI [18] of 42.4 µM.

— PubChem BioAssay (NCI)
